Results published in ChEMBL document CHEMBL4396955, “Novel thiazolidines: Synthesis, antiproliferative properties and 2D-QSAR studies” (Bioorg Med Chem, 2019).

Columns and labels:
[1] = system: TERT-RPE1; assay: Cytotoxicity against human RPE1 cells assessed as reduction in cell growth incubated for 72 hrs by MTT assay; format: cell-based; conditions: RPE-1, 72 h
[2] = system: MCF7; assay: Antiproliferative activity against human MCF7 cells assessed as reduction in cell growth incubated for 72 hrs by MTT assay; format: functional, cell-based; conditions: MCF7, 72 h
[3] = system: HCT-116; assay: Antiproliferative activity against human HCT116 cells assessed as reduction in cell growth incubated for 72 hrs by MTT assay; format: functional, cell-based; conditions: HCT-116, 72 h
[4] = target: T1, Peroxisome proliferator-activated receptor gamma (Homo sapiens, UniProt P37231); assay: Antagonist activity at human PPARgamma LBD expressed in yeast AH109 cells assessed as reduction in rosiglitazone-stimulated PPARgamma/CBP interaction by measuring alpha galactosidase activity using PNP-alpha-Gal as substrate by alpha-galactosidase based yeast-two hybrid assay; format: cell-based
T1 sequence (P37231 whole entry): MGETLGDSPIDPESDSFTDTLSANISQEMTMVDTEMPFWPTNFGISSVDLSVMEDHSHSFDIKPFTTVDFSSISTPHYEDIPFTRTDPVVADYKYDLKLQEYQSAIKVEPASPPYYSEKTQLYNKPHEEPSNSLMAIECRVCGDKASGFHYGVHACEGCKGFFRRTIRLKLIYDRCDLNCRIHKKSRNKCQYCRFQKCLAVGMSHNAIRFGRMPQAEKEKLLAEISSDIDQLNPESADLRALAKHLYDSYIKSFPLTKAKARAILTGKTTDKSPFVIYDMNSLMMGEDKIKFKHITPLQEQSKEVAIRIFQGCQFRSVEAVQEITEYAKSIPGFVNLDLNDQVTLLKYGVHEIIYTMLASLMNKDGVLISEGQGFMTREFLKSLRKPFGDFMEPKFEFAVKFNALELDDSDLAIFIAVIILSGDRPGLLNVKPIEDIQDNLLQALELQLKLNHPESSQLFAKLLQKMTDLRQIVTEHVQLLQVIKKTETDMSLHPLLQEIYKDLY

[5] = system: MCF7; assay: Antiproliferative activity against human MCF7 cells assessed as reduction in cell growth incubated for 48 hrs by MTT assay; format: functional, cell-based; conditions: MCF7, 48 h

Compound	IC50 [1]	IC50 [2]	IC50 [3]	IC50 [4]	IC50 [5]
COc1ccc(/C=C2\S/C(=N\c3ccc(C)cc3)N(C)C2=O)cc1	> 100 µM	> 100 µM	> 100 µM		
COc1ccc(/C=C2\S/C(=N\c3ccc(Cl)cc3)N(C)C2=O)cc1	> 100 µM	39.3 µM	10.4 µM		
COc1ccc(/C=C2\S/C(=N\c3ccc(C(C)(C)C)cc3)N(C)C2=O)cc1	46.7 µM	> 100 µM	> 100 µM		
COc1ccc(/C=C2\S/C(=N\c3c(C)cccc3C)N(C)C2=O)cc1	> 100 µM	> 100 µM	> 100 µM		
FC(F)(F)c1cc(/N=C2/NC/C(=C/c3ccccc3)S2)cc(C(F)(F)F)c1	32.8 µM	13.5 µM	16.1 µM		
O=c1[nH]cc(F)c(=O)[nH]1 [FLUOROURACIL]		3.2 µM	20.4 µM		
COc1ccc(/C=C2\S/C(=N\c3cc(C(F)(F)F)cc(C(F)(F)F)c3)N(C)C2=O)cc1	> 100 µM	77.8 µM	> 100 µM		
COc1ccc(/C=C2\S/C(=N\c3ccc(Br)cc3)N(C)C2=O)cc1	> 100 µM	> 100 µM	17 µM		
COc1ccc(/C=C2\S/C(=N\c3ccc(F)cc3)N(C)C2=O)cc1	> 100 µM	66.5 µM	13.3 µM		
COc1ccc(/C=C2\S/C(=N\c3ccc(C)c(Cl)c3)N(C)C2=O)cc1	23 µM	> 100 µM	14.1 µM		
COc1ccc(/C=C2/CN(C)/C(=N/c3ccc(F)cc3)S2)cc1	42.8 µM	8 µM	10 µM		
C=C1CN/C(=N/c2ccccc2)S1	> 100 µM	> 100 µM	> 100 µM		
COc1ccc(/C=C2/CN(C)/C(=N/c3ccc(Br)cc3)S2)cc1	61.3 µM	7.4 µM	8.9 µM		
CCOc1cc(/C=C2\S/C(=N/c3ccc(Cl)c(C(=O)O)c3)N(C)C2=O)cc(Cl)c1O				7.97 µM	108 µM
C=C1CN(C)/C(=N/c2ccccc2)S1	> 100 µM	> 100 µM	> 100 µM		
COc1ccc(/C=C2/CN(C)/C(=N/c3ccc(OC)cc3)S2)cc1	65.9 µM	8.7 µM	15.9 µM		
COc1ccc(/C=C2/CN(C)/C(=N/c3ccc(C)cc3)S2)cc1	65.7 µM	7.6 µM	11.1 µM		
COc1ccc(/C=C2/CN(C)/C(=N/c3ccc(C(C)(C)C)cc3)S2)cc1	23.5 µM	28.7 µM	25.9 µM		
S=C(Nc1ccccc1)N1C/C(=C/c2ccccc2)S/C1=N\c1ccccc1	> 100 µM	> 100 µM	> 100 µM		
COc1ccc(/C=C2\S/C(=N\c3ccc(OC)cc3)N(C)C2=O)cc1	> 100 µM	> 100 µM	> 100 µM		
COc1ccc(/C=C2/CN(C)/C(=N/c3ccc(C(F)(F)F)cc3)S2)cc1	72 µM	24.1 µM	34.3 µM		
COc1ccc(/C=C2\S/C(=N\c3ccccc3)N(C)C2=O)cc1	> 100 µM	> 100 µM	> 100 µM		
C=CC/N=C1\S/C(=C\c2ccc(OC)cc2)C(=O)N1C	> 100 µM	> 100 µM	79.3 µM		
C=CC/N=C1/NCC(=C)S1	> 100 µM	> 100 µM	> 100 µM		
COc1ccc(/C=C2/CN(C)/C(=N/c3ccc(Cl)cc3)S2)cc1	39.6 µM	7.6 µM	9.8 µM		
COc1ccc(/C=C2/CN(C)/C(=N/c3ccc([N+](=O)[O-])cc3)S2)cc1	> 100 µM	9.8 µM	10.2 µM		
